{"source": "paper PMC9603946", "about": "“On the Sensitivity of the Virion Envelope to Lipid Peroxidation” (Microbiology Spectrum, 2022)", "key": {"[1]": {"assay": "Vero cell viability after 2 h exposure to lipoperoxidators (CellTiter-Glo)", "conditions": "African green monkey, CC50, Vero", "protocol": "(§1) The cells were washed twice with warm DMEM before a 100 μL lipoperoxidator solution was transferred with a multichannel pipette from the plate containing the drug dilutions in technical triplicates. The cells were incubated with peroxidators for 2 h at 37°C. Then, the medium was removed, and the cells were washed twice with DMEM at 37°C. The plates were cooled down to RT, and the medium was removed. Then, 50 μL phenol red free DMEM and 50 μL CellTiter-glo Luminiscent Cell Viability Assay (Promega, G7571/2/3) were added and mixed in an orbital shaker for 2 min. Afterwards, 80 μL of the mix was transferred onto white 96-well plates and incubated for 10 min at RT for signal stabilization. The luminescence was read in the Glomax Multidetection System (Promega) with an integration time of 0.5 s.\n(§2) The means of the technical triplicates were normalized to the means of the vehicle controls, analyzed via nonlinear regression dose responses, and graphed using GraphPad Prism 9.0. Three or four independent biological replicates were performed for each treatment (n = 3 or 4).\n(§3) To evaluate the effects of lipid soluble antioxidants, 10 μM vitamin E was loaded onto carrier 1% BSA in the dark for 4.5 h at RT. The cells were washed twice with DMEM at 37°C and preloaded with 100 μL of 10 μM vitamin E in BSA carrier for 3 h at 37°C. The cells were washed twice again before the addition of any lipoperoxidators. Peroxidators were then added to the cells at working concentrations and incubated for 2 h at 37°C. The peroxidation solution was then removed, and the cells were washed twice with DMEM before analyzing viability. To evaluate the effects of a water soluble antioxidant, the cells were treated with 10 μM vitamin C (final concentration) simultaneously with the lipoperoxidators."}, "Vero cells [2]": {"tested_on": "Vero cells", "assay": "Vero cell viability after 2 h exposure to lipoperoxidators (CellTiter-Glo)", "conditions": "Vero", "protocol": "as §1, §2, §3"}, "[3]": {"assay": "HFF cell viability after 2 h exposure to lipoperoxidators (CellTiter-Glo)", "conditions": "human, CC50, HFF", "protocol": "as §1, §2, §3"}, "HFF cells [4]": {"tested_on": "HFF cells", "assay": "HFF cell viability after 2 h exposure to lipoperoxidators (CellTiter-Glo)", "conditions": "HFF", "protocol": "as §1, §2, §3"}, "HSV-1": {"tested_on": "HSV-1", "assay": "HSV-1 virion infectivity (plaquing efficiency) on HFF cells after virion pretreatment", "conditions": "for EC50: Human alphaherpesvirus 1, HFF", "protocol": "The inocula were removed, and the cells were washed and then incubated at 37°C in 5% CO2 until plaques were visible and well-resolved (about 2 days), at which time they were fixed and stained with crystal violet.\nHSV-1 suspensions of 20,000 plaque PFU in 250 μL DMEM were mixed 1:1 with 2-fold serial dilutions of the general peroxidators and were incubated in a water bath for 2 h at 37°C. Next, treated virions were diluted 1:100 before being adsorbed onto cells for 1 h at 37°C. The inocula were removed, and the cells were washed twice with cold DMEM. Infected cells were overlaid with DMEM supplemented with 2% (Vero) or 1% (HFF) methylcellulose and 5% FBS and were incubated at 37°C until plaques were visible and well-resolved, typically in about 2 days. Cell monolayers were fixed and stained with 1% crystal violet in 17% methanol for 18 h at RT. The cells were washed, and the plaques were counted and normalized to those produced by the vehicle treated virions.\nTo test the effects of lipid soluble antioxidants on virions, 10 μM vitamin E loaded onto 1% carrier BSA in the dark for 4.5 h at RT was incubated with 10^6 HSV-1 virions for 3 h at 37°C. […] The treated virions were diluted 1:100 before infecting cells. […] The mix was incubated for 2 h at 37°C, diluted 1:100, and used to infect cells. The infectivity of an aliquot of treated virions was tested via a plaque assay."}, "Vero cells [5]": {"tested_on": "Vero cells", "assay": "Vero cell lipid peroxidation probed with C11-Bodipy", "format": "cell-based, African green monkey", "conditions": "for EC50: Chlorocebus sabaeus, Bodipy probe", "protocol": "(§4) The effects of peroxidators have been commonly evaluated against purified lipids and liposomes as a proxy, but they have not been evaluated against virions ([50], [53][–][55]). We instead directly evaluated the extent of virion lipid peroxidation.\nTo evaluate Vero cell lipoperoxidation with C11-Bodipy, 7.5 × 10^3 cells were seeded into each well of 96-well plates and incubated for 18 h at 37°C in 5% CO2 before preloading them with 1 μM C11-Bodipy for 30 min at 37°C. […] Two hours later, the cells were washed twice and lysed with DMSO:isopropanol. Fluorescence was evaluated in a TECAN Infinite M200 Pro at 550 nm excitation and 580 to 630 nm emission with the reading peak at 600 nm.\n(§5) To evaluate the effects of a lipid soluble antioxidant, cells or virions were preloaded with vitamin E-BSA for 3 h at 37°C. Vitamin E-BSA containing medium was removed, and the cells were washed twice with DMEM. Liperfluo (20 or 10 μM for cells or virions, respectively) or C11-Bodipy (1 μM for cells or 0.1 mol% for virions) were preloaded into the cells or virions for 30 min at 37°C.\n(§6) To evaluate the effects of water soluble antioxidants, liperfluo (20 μM for cells or 10 μM for virions) or C11-Bodipy (1 μM for cells or 0.1 mol% for virions) were preloaded into the cells or virions for 30 min at 37°C. […] Fluorescence was evaluated in a TECAN Infinite M200 Pro at 515 nm excitation and 545 nm emission for liperfluo or at 550 nm excitation and 580 to 630 nm emission for C11-Bodipy."}, "HSV-1 virions": {"tested_on": "HSV-1 virions", "assay": "HSV-1 virion lipid peroxidation probed with C11-Bodipy", "design": "species or system HSV-1 KOS", "conditions": "Human alphaherpesvirus 1, Bodipy probe", "protocol": "as §4\nTo evaluate virion lipoperoxidation with C11-Bodipy, 50 μL DMEM containing 5 × 10^6 PFU of HSV-1 was added into each well of 96-well plates. Virions were then preloaded with 0.1 mol % of C11-Bodipy for 30 min at 37°C. […] Fluorescence was evaluated in a TECAN Infinite M200 Pro at 550 nm excitation and 580 to 630 nm emission with the reading peak at 600 nm.\nas §5, §6"}, "Vero cells [6]": {"tested_on": "Vero cells", "assay": "Viability of Vero cells infected with AMVN-pretreated virions", "protocol": "(§7) The inocula were removed, the cells were washed, and the viability was immediately evaluated, mimicking the conditions used to test the direct exposure of the cells to the peroxidators.\n(§8) After 1 h at 37°C, the cells were washed, and cell viability was evaluated as described."}, "HFF cells [7]": {"tested_on": "HFF cells", "assay": "Viability of HFF cells infected with AMVN-pretreated virions", "protocol": "as §7, §8"}, "[8]": {"conditions": "preloaded with vitamin E (10 μM, BSA carrier)"}, "[9]": {"conditions": "pretreated virions diluted 1:100"}}, "note": "Like-named read-outs stand apart in the source and are kept apart here. Marks after values point to notes of the source that are not given here."}
{"smiles": "CC(C)CC(C)(C#N)N=NC(C)(C#N)CC(C)C", "note": "(stereo not drawn) [AMVN, 2,2′-azobis(2,4-dimethylvaleronitrile)]", "values": [{"measurement": "CC50 at 2 h", "setting": "[1]; no antioxidant, 2 h at 37°C", "value": 4000, "unit": "µM"}, {"measurement": "CC50 at 2 h", "setting": "[1]; [8]", "value": 4600, "unit": "µM"}, {"measurement": "CC50 at 2 h", "setting": "[1]; with vitamin C (10 μM)", "value": 3300, "unit": "µM"}, {"measurement": "concentration of maximal inhibition of cell viability", "setting": "Vero cells [2]", "value": 10000, "unit": "µM"}, {"measurement": "PI, CC50 (antioxidant)/CC50", "setting": "Vero cells [2]; vitamin C", "value": 0.8}, {"measurement": "PI, CC50 (antioxidant)/CC50", "setting": "Vero cells [2]; vitamin E", "value": "1.2^d"}, {"measurement": "CC50 at 2 h", "setting": "[3]; no antioxidant, 2 h at 37°C", "value": 4800, "unit": "µM"}, {"measurement": "CC50 at 2 h", "setting": "[3]; [8]", "value": 4900, "unit": "µM"}, {"measurement": "CC50 at 2 h", "setting": "[3]; with vitamin C (10 μM)", "value": 4400, "unit": "µM"}, {"measurement": "concentration from which HFF viability was affected", "setting": "HFF cells [4]", "value": 2000, "unit": "µM"}, {"measurement": "PI, CC50 (antioxidant)/CC50", "setting": "HFF cells [4]; vitamin C", "value": 0.9}, {"measurement": "PI, CC50 (antioxidant)/CC50", "setting": "HFF cells [4]; vitamin E", "value": 1.0}, {"measurement": "concentration from which virion infectivity was affected", "setting": "HSV-1", "value": 0.7, "unit": "mM"}, {"measurement": "concentration giving a loss of infectivity of about 30%", "setting": "HSV-1; 2 h at 37°C", "value": 0.7, "unit": "mM"}, {"measurement": "EC50", "setting": "HSV-1; 2 h, no antioxidant, virions treated 2 h at 37°C", "value": 1100, "unit": "µM"}, {"measurement": "EC50", "setting": "HSV-1; virions preloaded with vitamin E (10 μM, BSA carrier)", "value": 2700, "unit": "µM"}, {"measurement": "EC50", "setting": "HSV-1; with vitamin C (10 μM)", "value": 1400, "unit": "µM"}, {"measurement": "SI, CC50/EC50", "setting": "HSV-1; vitamin C", "value": 3.1}, {"measurement": "SI, CC50/EC50", "setting": "HSV-1; vitamin E", "value": 1.8}, {"measurement": "lowest concentration affecting cell lipid peroxidation", "setting": "Vero cells [5]; C11-Bodipy (Fig. 8)", "value": 2.5, "unit": "mM"}, {"measurement": "EC50", "setting": "Vero cells [5]; no antioxidant, read-out: CP50 (concentration of peroxidant that results in 50% peroxidation in cell lipids)", "value": 2100, "unit": "µM"}, {"measurement": "EC50", "setting": "Vero cells [5]; vitamin C, read-out: CP50 (the source's name)", "value": 1700, "unit": "µM"}, {"measurement": "EC50", "setting": "Vero cells [5]; vitamin E, read-out: CP50 (the source's name)", "value": 3500, "unit": "µM"}, {"measurement": "EC50", "setting": "HSV-1 virions; no antioxidant, read-out: VP50 (concentration of peroxidant that results in 50% peroxidation in virion lipids)", "value": 2700, "unit": "µM"}, {"measurement": "EC50", "setting": "HSV-1 virions; vitamin C, read-out: VP50 (the source's name)", "value": 2000, "unit": "µM"}, {"measurement": "EC50", "setting": "HSV-1 virions; vitamin E, read-out: VP50 (the source's name)", "value": 2400, "unit": "µM"}, {"measurement": "decrease of infected cell viability at the highest AMVN concentration", "setting": "Vero cells [6]; AMVN carried by virions", "value": "20 to 30", "unit": "%"}, {"measurement": "concentration from which AMVN carried by virions had minor effects on infected cell viability", "setting": "Vero cells [6]; [9]", "value": 2000, "unit": "µM"}, {"measurement": "decrease of infected cell viability at the highest AMVN concentration", "setting": "HFF cells [7]; AMVN carried by virions", "value": "20 to 30", "unit": "%"}, {"measurement": "concentration from which AMVN carried by virions had minor effects on infected cell viability", "setting": "HFF cells [7]; [9]", "value": 3000, "unit": "µM"}]}
